Several values for one entry are separate records, joined by “and”; a condition that tells them apart may be missing. Identical values can stand only once.
Experiments:
[1] = test system: cryopreserved hepatocytes; test: Rank order of hepatocyte stability across species; type: in vitro ADME, human, mouse, rat, dog, minipig and monkey; conditions: 10 μM, up to 4 hours
Description: (§1) The formation of SRA737-related metabolites was determined in cryopreserved hepatocytes from human, mouse, rat, dog, minipig and monkey samples after incubation with SRA737 at a nominal concentration of 10 μM for up to 4 hours. […] In the human hepatocyte preparation, approximately 67% of the parent remained after 4 hours of incubation compared to 75% and 7% in the rat and minipig preparations, respectively. Eight human SRA737 metabolites were observed. All SRA737 metabolites formed by human hepatocytes were also formed by monkey hepatocytes. Six metabolites were present at equal or greater abundance in the monkey.

plasma protein [2] = test: Plasma protein binding, ultracentrifugation, mouse plasma; type: in vitro ADME; conditions: for Percentage Bound / Percentage Free: Mouse plasma
Description: (§2) The PK of SRA737 have been determined in the mouse, rat, dog and monkey following oral and IV administration (Table 3). […] An acceptable terminal elimination t1/2 was also observed in each species. […] The plasma protein binding of SRA737 at 1 and 10 μM was examined in mouse, minipig, monkey and human plasma using ultracentrifugation and in dog plasma (10 μM) using rapid equilibrium dialysis.

Single dose PK, dog = type: in vivo; conditions: Dog oral 5 mg/kg single dose
Description: (§3) Several studies have been conducted to evaluate the PK properties of SRA737, such as the absorption (in vitro permeability assays and in vivo PK following IV and oral administration), distribution (in vivo tissue distribution and in vitro plasma protein binding) and metabolism (in vitro hepatocyte and CYP inhibition and induction studies) of SRA737.
as §2

Single dose PK, monkey = type: in vivo
Description: as §3, §2

cancer xenograft models = test: In vivo efficacy studies in xenograft, PDX and syngeneic models; parameters: species or system mouse
Description: A program of in vivo efficacy studies was performed to assess the activity of SRA737 in combination with genotoxic chemotherapy and targeted agents, and as monotherapy.
One of these models also carried a MYCN amplification. A fourth HGSOC PDX model with partial resistance to PARPi was also sensitive to high dose SRA737 monotherapy.

[3] = test system: cryopreserved hepatocytes; test: Stability in cryopreserved minipig hepatocytes; type: in vitro ADME; conditions: 10 μM, after 4 hours of incubation
Description: as §1

plasma protein [4] = test: Plasma protein binding, rapid equilibrium dialysis, dog plasma; type: in vitro ADME; conditions: 10 μM
Description: as §2

[5] = test system: genetically defined tumors (HGSOC, CRC, mCRPC, NSCLC, SCCHN, SCCA); test: SRA737 monotherapy clinical study (SRA737-01), anti-tumor activity per RECIST v1.1; type: in vivo, human
Description: An in-human clinical trial is conducted to confirm efficacy of SRA737 monotherapy methods of treatment and patient selection strategies disclosed herein for prospectively-selected genetically-defined subjects with tumor types known to have a high prevalence of genomic alterations expected to sensitize the tumor to Chk1 inhibition (“Cohort Expansion Phase”). The Cohort Expansion Phase consists of 6 indication-specific expansion cohorts of approximately 20 prospectively-selected genetically-defined subjects each. The cohorts are subjects with previously treated metastatic colorectal cancer [CRC], high grade serous ovarian cancer [HGSOC] without CCNE1 gene amplification, HGSOC with CCNE1 gene amplification (or alternative genetic alteration with similar functional effect), metastatic castration-resistant prostate cancer [mCRPC], advanced non-small cell lung cancer [NSCLC], and squamous cell carcinoma of the head and neck [HNSCC], or squamous cell carcinoma of the anus [SCCA]. Subjects are initially administered SRA737 following the dosing regimen established in Example 4. The dosing regimen in some cases changes during the course of the trial.
All subjects who have measurable disease, receive at least one cycle of SRA737 and have a baseline plus at least 1 post-baseline assessment of disease are evaluable for response. Subjects who develop clear evidence of PD without a formal disease assessment and those without a formal disease assessment before study withdrawal are considered non-responders. Complete responses and PRs are required to be confirmed by a subsequent assessment at least 4 weeks later. Stable Disease (SD) determination requires that the relevant criteria be met at least once, a minimum of 6 weeks after the initial dose of SRA737 is given.
Response criteria are defined below: • a. Complete Response (CR): Disappearance of all target lesions. Any pathological lymph nodes (whether target or non-target), in general, have reduction in short axis to <10 mm. • b. Partial Response (PR): At least a 30% decrease in the sum of diameters of target lesions, taking as reference the baseline sum diameters. • c. Progressive Disease (PD): At least a 20% increase in the sum of diameters of target lesions, taking as reference the smallest sum on study (this includes the baseline sum if that is the smallest on study). […] (Note: the appearance of one or more new lesions is also considered progression). • d. Stable Disease (SD): Neither sufficient shrinkage to qualify for PR nor sufficient increase to qualify for PD, taking as reference the smallest sum diameters while on study.
The Cohort Expansion phase was contemporaneously initiated when circulating plasma concentrations of SRA737 exceeded the minimum effective concentration of SRA737 modelled from murine efficacy studies. Thereafter, experience gained in the ongoing Dose Escalation phase informed dose selection for expansion cohorts. The Cohort Expansion phase enrolled subjects with genetically defined tumors that harbored genomic alterations hypothesized to confer sensitivity to Chk1 inhibition, which were prospectively selected by next-generation sequencing (FoundationOne). Subjects with the following tumors were eligible for enrollment: ia) high grade serous ovarian cancer (HGSOC), ib) HGSOC putatively enriched for CCNE1 gene network amplification, ii) colorectal cancer (CRC), iii) metastatic castration-resistant prostate cancer (mCRPC), iv) non-small cell lung cancer (NSCLC), and v) squamous cell carcinomas (head and neck (SCCHN); anus (SCCA)).
Preliminary anti-tumor activity was assessed by target tumor response and overall response in accordance with RECIST v1.1.

[6] = Parallel artificial membrane permeability assay (PAMPA); type: in vitro ADME
Description: The membrane permeability of SRA737 was assessed in the parallel artificial membrane permeability assay (PAMPA) and Caco-2 assays. Permeability in the PAMPA assay was classified as low.

[7] = FA/BRCA gene network alterations

With `N#Cc1cnc(Nc2cc(NCC3CNCCO3)c(C(F)(F)F)cn2)cn1` (stereo not drawn) [SRA737, 5-[[4-[[morpholin-2-yl]methylamino]-5-(trifluoromethyl)-2-pyridyl]amino]pyrazine-2-carbonitrile] the “rank order of stability from most stable to least stable” value [1] was “rat≈mouse>monkey˜human>>dog>>minipig”, the “Percentage Bound” value (plasma protein [2]; 1 μM) was 94.5% and the “Percentage Free” value (plasma protein [2]; 1 μM) was 5.5%. The “Percentage Bound” value (plasma protein [2]; 10 μM) was 93.4%, the “Percentage Free” value (plasma protein [2]; 10 μM) was 6.6% and the plasma protein binding (plasma protein [2]; mouse) was about 94%. It also gave a Foral (Single dose PK, dog) of 86%, a Foral (Single dose PK, monkey; Monkey oral 2 mg/kg single dose) of 90% and a Foral (Single dose PK, monkey; Monkey oral 10 mg/kg single dose) of 104%. For the same compound, the “synergy with gemcitabine and carboplatin” value (cancer xenograft models; Calu6 model, data not shown) was “Synergy”, the “antitumor activity as a single agent” value (cancer xenograft models; HGSOC PDX models harboring CCNE1 amplifications accompanied by TP53 mutations, data not shown) was “Significant antitumor activity” and the “synergy with low-dose gemcitabine” value (cancer xenograft models; HT29 (FIG. 5), OVCAR3 and SJSA-1 CDX models, PDX model of TNBC) was “Synergy was also observed”. The “antitumor activity in combination with standard-dose gemcitabine” value (cancer xenograft models; HT29, SJSA-1, SW620, Calu6, KPC-1 and patient-derived bladder carcinoma xenograft models, data not shown) was “Significant, dose-dependent antitumor activity”, the synergy with irinotecan (cancer xenograft models; HT29 model, data not shown) was “Synergy” and the single agent efficacy (cancer xenograft models; OVCAR3, Eμ-Myc, MOLM-13, TH-MYC, MDA-MB-231, Renca and LL/2 models, data not shown) was “demonstrated single agent efficacy”. The “sensitivity to high dose SRA737 monotherapy” value (cancer xenograft models; fourth HGSOC PDX model with partial resistance to PARPi) was “sensitive”, the “antitumor activity in combination with a PD1/PD-L1 inhibitor” value (cancer xenograft models; syngeneic mouse models mTmG, MC38 and Pan02, data not shown) was “Significant antitumor activity” and the parent remaining [3] was 7%. The “Percentage Bound” value (plasma protein [4]) was 68.8%, the “Percentage Free” value (plasma protein [4]) was 31.2% and the “confirmed RECIST partial or complete response” value [5] was “no subject had a confirmed RECIST partial or complete response”. The “responses of subjects with unambiguously positive CCNE1 amplification” value ([5]; 4/24 HGSOC subjects) was 3 SD and 1 Progressive Disease (PD), the “subjects with best overall response of SD” value ([5]; 107 subjects treated) was 34 (32%) n (%) and the DCR ([5]; CCNE gene network alterations) was 67%. For the same compound, the DCR [5, 7] was 71%, the DOS [5, 7] was 3.8 cycles and the “Disease Control Rate (DCR)” value ([5]; HGSOC cohort) was 54%. For the same compound, the “maximal target tumor decreases” value ([5]; HGSOC subjects) was 27% and 29%, the “anti-tumor activity by tumor type” value ([5]; HGSOC, CRC, mCRPC and NSCLC tumors) was “Anti-tumor activity was observed” and the DCR ([5]; PI3K gene network alterations (PIK3CA, AKT, PTEN)) was 77%. For the same compound, the PDs ([5]; RAS network mutations) was 15/20, the “duration on study (DOS)” value ([5]; RAS network mutations) was 2 cycles and the “overall average tumor % change” value ([5]; RAS network mutations) was “+20%”. The DCR ([5]; activating mutations in the RAS network) was 25%, the “subjects with durable stable disease (SD) lasting ≥4 months” value ([5]; data cut off 3 May 2019) was 22 (21%) n (%) and the “permeability in the PAMPA assay” value [6] was “low”.

Source: US20220226338A1, “Methods of Treating Cancer Using CHK1 Inhibitors” (Sierra Oncology, Inc., priority 2019, published 2022)
